From publication PMC6906440, “The vertebrate Aqp14 water channel is a neuropeptide-regulated polytransporter” (Communications Biology, 2019)

Assays:
Assay in all cases: radiolabelled uptake in Xenopus oocytes
Format in all cases: cell-based
DrAqp14 [1] = target: T1, DrAqp14 (Danio rerio, UniProt A0A0G2L4D1); conditions: 1 mM urea, isotonic, pH 7.5; labelled compound; channel transport
T1 construct: full-length cDNA from brain RNA in pT7Ts; Xenopus laevis oocytes (15 ng cRNA)
T1 sequence (A0A0G2L4D1 1-277): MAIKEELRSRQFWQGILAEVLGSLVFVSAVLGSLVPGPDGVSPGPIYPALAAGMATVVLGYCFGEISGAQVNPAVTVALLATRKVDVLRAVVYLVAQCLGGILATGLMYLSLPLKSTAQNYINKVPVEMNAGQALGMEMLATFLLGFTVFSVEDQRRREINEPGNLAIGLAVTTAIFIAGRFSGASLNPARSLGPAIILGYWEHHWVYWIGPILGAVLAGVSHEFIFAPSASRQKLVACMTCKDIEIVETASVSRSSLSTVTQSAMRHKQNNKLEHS

SsAqp14 [2] = target: T2, SsAqp14 (Salmo salar, UniProt A0A6B9KBC3); conditions: 1 mM urea, isotonic, pH 7.5; labelled compound; channel transport
T2 construct: full-length cDNA from kidney RNA in pT7Ts; Xenopus laevis oocytes (15 ng cRNA)
T2 sequence (A0A6B9KBC3 1-277): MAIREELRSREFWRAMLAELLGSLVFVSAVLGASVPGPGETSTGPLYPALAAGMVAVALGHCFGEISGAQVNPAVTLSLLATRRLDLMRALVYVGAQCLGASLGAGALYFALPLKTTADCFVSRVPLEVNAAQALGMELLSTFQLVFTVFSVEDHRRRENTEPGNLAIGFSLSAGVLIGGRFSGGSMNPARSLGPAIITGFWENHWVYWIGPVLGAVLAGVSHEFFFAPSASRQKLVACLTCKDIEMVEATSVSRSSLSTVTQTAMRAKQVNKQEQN

SaAqp14 [3] = target: T3, SaAqp14 (Sparus aurata, UniProt A0A6B9KHM1); conditions: 1 mM urea, isotonic, pH 7.5; labelled compound; channel transport
T3 construct: full-length cDNA from brain RNA in pT7Ts; Xenopus laevis oocytes (15 ng cRNA); residues 261-276 TQNAMRAKQANKQENN
T3 sequence (A0A6B9KHM1 1-276): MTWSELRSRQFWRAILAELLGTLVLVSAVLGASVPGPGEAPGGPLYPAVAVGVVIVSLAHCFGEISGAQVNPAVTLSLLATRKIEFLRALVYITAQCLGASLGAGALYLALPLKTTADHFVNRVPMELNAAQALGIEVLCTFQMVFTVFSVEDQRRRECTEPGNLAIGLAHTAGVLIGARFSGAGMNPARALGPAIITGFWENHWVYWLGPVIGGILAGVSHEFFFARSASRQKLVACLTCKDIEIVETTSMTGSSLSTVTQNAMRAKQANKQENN

SsAqp14 [4] = target: T2, SsAqp14; conditions: 1 mM glycerol, isotonic, pH 7.5; labelled compound; channel transport
DrAqp14 [5] = target: T1, DrAqp14; conditions: 1 mM glycerol, isotonic, pH 7.5; labelled compound; channel transport
SaAqp14 [6] = target: T3, SaAqp14; conditions: 1 mM glycerol, isotonic, pH 7.5; labelled compound; channel transport

NC(N)=O [urea]
urea uptake (DrAqp14 [1]): oocytes expressing DrAqp14 are highly permeable to urea and hydrogen peroxide
urea uptake (SsAqp14 [2]): Oocytes injected with SaAqp14 and SsAqp14 are also slightly permeable to glycerol, urea
urea uptake (SaAqp14 [3]): Oocytes injected with SaAqp14 and SsAqp14 are also slightly permeable to glycerol, urea

OCC(O)CO [glycerol]
glycerol uptake (SsAqp14 [4]): Oocytes injected with SaAqp14 and SsAqp14 are also slightly permeable to glycerol, urea
glycerol uptake (DrAqp14 [5]): as for SaAqp14 and SsAqp14 show a lesser permeability to glycerol and methylamine
glycerol uptake (SaAqp14 [6]): Oocytes injected with SaAqp14 and SsAqp14 are also slightly permeable to glycerol, urea
